According to the OligoGym collection:
Bases are written 5' to 3'; sugars and linkages follow in the same order, as letters with counts (s phosphorothioate, o phosphodiester; PS: all linkages phosphorothioate). The collection does not say whether C is 5-methylated. l = locked nucleic acid (LNA); d = 2'-deoxy (DNA)

Biological target: Tau
Test: rat primary cortical neurons, FLIPR, 25 uM ASO

Sequence | calcium oscillation score
GAAATCCCTCTACTCCA (sugars l3 d12 l2, PS) | 73.7 % of control
GAACAGGAGAGCCATTTCCC (sugars l3 d14 l3, PS) | 7.14 % of control
GAACTATTGATAAA (sugars l3 d8 l3, PS) | 85.7 % of control
GAACTGCGAGGAGCAG (sugars l3 d10 l3, PS) | 85.2 % of control
GAACTGGTTAGCCCTA (sugars l3 d10 l3, PS) | 79.9 % of control
GAACTTCTAGTTATACAGTT (sugars l3 d14 l3, PS) | 26.2 % of control
GAAGGTCAGCTTGTGG (sugars l3 d10 l3, PS) | 11.4 % of control
GAAGGTGGCTCTGGGC (sugars l3 d10 l3, PS) | 0 % of control
GAAGTCCCGAGCCAAAGCCG (sugars l3 d14 l3, PS) | 5.18 % of control
GAATAACATTAACCCT (sugars l4 d8 l4, PS) | 74.5 % of control
GAATATTACACCATCC (sugars l4 d8 l4, PS) | 97 % of control
GACACCTCGTCAGCTAGCGT (sugars l3 d14 l3, PS) | 11.7 % of control
GACCCTTTTTCTTAAC (sugars l4 d10 l2, PS) | 59.1 % of control
GACGTGGGTGATATTGTCCA (sugars l3 d14 l3, PS) | 0 % of control
GACGTTGCTAAGATCC (sugars l3 d10 l3, PS) | 22.6 % of control
GACTGCTCAGCTAAGACCCT (sugars l3 d14 l3, PS) | 31.2 % of control
GACTTGGGTGGAGTAC (sugars l3 d10 l3, PS) | 0 % of control
GACTTGGGTGGAGTACGGAC (sugars l3 d14 l3, PS) | 0 % of control
GACTTGTACACGAT (sugars l3 d8 l3, PS) | 112 % of control
GACTTGTACACGATCTCCGC (sugars l3 d14 l3, PS) | 66.8 % of control
GAGAACTGGTTAGCCC (sugars l3 d10 l3, PS) | 2.3 % of control
GAGACCACATTATCATCCAT (sugars l3 d14 l3, PS) | 52.4 % of control
GAGAGACCACATTATCATCC (sugars l3 d14 l3, PS) | 96.7 % of control
GAGCACTAACTCTAAGTAGA (sugars l3 d14 l3, PS) | 23.8 % of control
GAGCCACACTTGGAGGTCAC (sugars l3 d14 l3, PS) | 0 % of control
GAGGAACGTGTGGATG (sugars l3 d10 l3, PS) | 3.7 % of control
GAGGCACAAGTCCTTA (sugars l3 d10 l3, PS) | 76.2 % of control
GAGTCTACCATGTCGA (sugars l3 d10 l3, PS) | 65.2 % of control

Sequence | calcium oscillation score
GAGTGCTCTTAGCATC (sugars l3 d10 l3, PS) | 33.3 % of control
GAGTTTGTGCAAGGTC (sugars l3 d10 l3, PS) | 0 % of control
GATACATGCGTCCTTT (sugars l3 d10 l3, PS) | 110 % of control
GATACCCTTCCTCAGA (sugars l2 d12 l2, PS) | 30.9 % of control
GATACTCAAATTCTTCC (sugars l4 d10 l3, PS) | 67.8 % of control
GATATTCATTCCCTCAC (sugars l2 d11 l4, PS) | 57.2 % of control
GATATTCCACACATAA (sugars l4 d8 l4, PS) | 54.8 % of control
GATATTGTCCAGGGACCCAA (sugars l3 d14 l3, PS) | 9.97 % of control
GATCTTAGGCTGGC (sugars l3 d8 l3, PS) | 4.6 % of control
GATCTTAGGCTGGCC (sugars l3 d9 l3, PS) | 8.13 % of control
GATCTTAGGCTGGCCC (sugars l3 d10 l3, PS) | 90.7 % of control
GATGCAGGAGTTGTAA (sugars l3 d10 l3, PS) | 0 % of control
GATGGATGTTGCCTAATGAG (sugars l3 d14 l3, PS) | 0 % of control
GATGTTGCCTAATGAG (sugars l3 d10 l3, PS) | 0 % of control
GATGTTGCCTAATGAGCCAC (sugars l3 d14 l3, PS) | 4.52 % of control
GATTAACCAATTAACC (sugars l3 d10 l3, PS) | ≥ 200 % of control
GATTAACCAATTAACCGAAC (sugars l3 d14 l3, PS) | 98.8 % of control
GATTTTACTACTCTCTT (sugars l4 d9 l4, PS) | 85.5 % of control
GCAAACAGGATACAGT (sugars l3 d10 l3, PS) | 0 % of control
GCAAACCACTCTTATT (sugars l4 d10 l2, PS) | 95.4 % of control
GCAAACCACTCTTATTC (sugars l4 d10 l3, PS) | 86.8 % of control
GCAACAATCCAACCAC (sugars l2 d10 l4, PS) | 76.3 % of control
GCAACAATCCAACCACT (sugars l3 d12 l2, PS) | 65.4 % of control
GCAATAGCAAACAGG (sugars l3 d9 l3, PS) | 40.8 % of control
GCACCAGGAACCTTCCAGAA (sugars l3 d14 l3, PS) | 12.8 % of control
GCACCATATTACACCA (sugars l3 d11 l2, PS) | 95.9 % of control
GCACCCACTTTCCTAATT (sugars l2 d14 l2, PS) | 51.6 % of control
